Patent US20230348362A1, “LIPID COMPOUNDS AND LIPID NANOPARTICLE COMPOSITIONS” (Suzhou Abogen Biosciences Co., Ltd., priority 2021, published 2023)

Columns and labels:
Type in all cases: physicochemical
[1] = Apparent pKa of LNP formulations, TNS fluorescence assay; conditions: LNP cationic lipid/DSPC/cholesterol/DMG-PEG 50/10/38.5/1.5 mol %
Protocol: As reported in literature, the apparent pKa of LNP formulations correlates with the delivery efficiency of LNPs for nucleic acids in vivo. The apparent pKa of each formulation was determined using an assay based on fluorescence of 2-(p-toluidino)-6-napthalene sulfonic acid (TNS). LNP formulations comprising of cationic lipid/DSPC/cholesterol/DMG-PEG (50/10/38.5/1.5 mol %) in PBS were prepared as described above. TNS was prepared as a 300 μM stock solution in distilled water. LNP formulations were diluted to 0.1 mg/mL total lipid in 3 mL of buffered solutions containing 50 mM sodium citrate, 50 mM sodium phosphate, 50 mM sodium borate, and 30 mM sodium chloride where the pH ranged from 3 to 9. An aliquot of the TNS solution was added to give a final concentration of […] and following vortex mixing fluorescence intensity was measured at room temperature in a Molecular Devices Spectramax iD3 spectrometer using excitation and mission wavelengths of 325 nm and 435 nm. A sigmoidal best fit analysis was applied to the fluorescence data and the pKa value was measured as the pH giving rise to half-maximal fluorescent intensity.

[2] = Encapsulation efficiency of lipid nanoparticles, Quant-it Ribogreen RNA assay; conditions: LNP of lipid/DSPC/cholesterol/PEG-lipid 50:10:38.5:1.5 encapsulating hEPO mRNA
Protocol: (§1) Briefly, a cationic lipid provided herein, DSPC, cholesterol, and PEG-lipid were solubilized in ethanol at a molar ratio of 50:10:38.5:1.5, and mRNA were diluted in 10 to 50 mM citrate buffer, pH=4. The LNPs were prepared at a total lipid to mRNA weight ratio of approximately 10:1 to 30:1 by mixing the ethanolic lipid solution with the aqueous mRNA solution at a volume ratio of 1:3 using a microfluidic apparatus, total flow rate ranging from 9-30 mL/min. Ethanol were thereby removed and replaced by DPBS using dialysis. Finally, the lipid nanoparticles were filtered through a […] sterile filter.
(§2) Lipid nanoparticle size were determined by dynamic light scattering using a Malvern Zetasizer Nano ZS (Malvern UK) using a […] backscatter detection mode. The encapsulation efficiency of lipid nanoparticles were determined using a Quant-it Ribogreen RNA quantification assay kit (Thermo Fisher Scientific, UK) according to the manufacturer's instructions.

[3] = Lipid nanoparticle size and polydispersity by dynamic light scattering; conditions: LNP of lipid/DSPC/cholesterol/PEG-lipid 50:10:38.5:1.5 encapsulating hEPO mRNA
Protocol: as §1, §2

SMILES	Apparent Pka [1]	Encapsulation Efficiency [2]	polydispersity [3]	size (nm) [3]
CCCCCCCCC(CCCCCC)CC(=O)OCCCCCN(CCO)CCN(CCCCCN(C)C(=O)CC(CCCCCC)CCCCCCCC)C1CCCCCC1 (centres unmarked) [Compound 147]	6.62	88.17%	0.058	85.76 nm
CCCCCCCCC(CCCCCC)CNC(=O)CCCCCN(CCO)CCN(CCCCC(COC(=O)CCCCCCC)COC(=O)CCCCCCC)C1CCC1 (centres unmarked) [Compound 136]	6.831	88.64%	0.040	84.74 nm
CCCCCCCCC(CCCCCCCC)CNC(=O)CCCCCN(CCO)CCN(CCCCCC(=O)OCC(CCCCCCCC)CCCCCCCC)C1CCCCCC1 [Compound 17]	6.671	98.9%	0.033	58.8 nm
CCCCCCCCC(=O)OCC(CCCCN(CCO)CCN(CCCCC(COC(=O)CCCCCCCC)COC(=O)CCCCCCCC)C1CCC1)COC(=O)CCCCCCCC [Compound 166]	6.513	92.85%	0.092	75.12 nm
CCCCCCCCCCCNC(=O)CCCCCN(CCN(CCO)CCCCC(COC(=O)CCCCCCC)COC(=O)CCCCCCC)C1CCC1 [Compound 188]	6.738	86.80%	0.085	111.8 nm
CCCCCCCCC(CCCCCC)CNC(=O)CCCCCN(CCCCN(CCO)CCCCC(COC(=O)CCCCCCC)COC(=O)CCCCCCC)C1CC1 (centres unmarked) [Compound 195]	6.925	83.82%	0.153	104.2 nm
CCCCCCCCC(CCCCCCCC)COC(=O)CCCCCN1CCC(N(CCO)CCCCCC(=O)OCC(CCCCCCCC)CCCCCCCC)CC1 [Compound 170]	6.269	96.0%	0.09	74.62 nm
CCCCCCCCC(CCCCCC)CNC(=O)CCCCCN(CCCCCO)CCN(CCCCC(COC(=O)CCCCCCC)COC(=O)CCCCCCC)C1CCCC1 (centres unmarked) [Compound 224]	6.748	85.65%	0.027	104.1 nm
CCCCCCCCC(CCCCCC)CNC(=O)CCCCCN(CCOCCO)CCN(CCCCC(COC(=O)CCCCCCC)COC(=O)CCCCCCC)C1CCCC1 (centres unmarked) [Compound 205]	6.917	81.79%	0.023	104.3 nm
CCCCCCCCC(CCCCCC)CNC(=O)CCCCCN(CCOCCO)CCN(CCCCC(COC(=O)CCCCCCC)COC(=O)CCCCCCC)C1CCCCCCC1 (centres unmarked) [Compound 208]	6.691	86.63%	0.053	85.95 nm
CCCCCCCCCOC(=O)CCCCCCCN1CCC(N(CCO)CCCCCCCC(=O)OC(CCCCCCCC)CCCCCCCC)CC1 [Compound 177]	6.668	93.69%	0.059	95.00 nm
CCCCCCCCC(CCCCCCCC)COC(=O)CCOCCN(CCO)CCN(CCOCCC(=O)OCC(CCCCCCCC)CCCCCCCC)C1CCC1 [Compound 112]	6.343	93.15%	0.059	77.33 nm
CCCCCCCCCCCOC(=O)CCCCCN(CCN(CCO)CCCCCC(=O)OCC(CCCCCCCC)CCCCCCCC)C1CCC(F)(F)CC1 [Compound 49]	6.153	95.5%	0.1	55.04 nm
CCCCCCCCC(CCCCCC)CNC(=O)CCCCN(CCO)CCN(CCCCC(COC(=O)CCCCCCC)COC(=O)CCCCCCC)C1CCCCCCC1 (centres unmarked) [Compound 214]	6.789	89.14%	0.058	76.29 nm
CCCCCCCCC(CCCCCC)CNC(=O)CCCCCN(CCCCN(CCO)CCCCC(COC(=O)CCCCCCC)COC(=O)CCCCCCC)C1CCCCCCC1 (centres unmarked) [Compound 199]	6.858	94.30%	0.162	80.14 nm
CCCCCCCCC(CCCCCC)CNC(=O)CCCCCN(CCCCN(CCO)CCCCC(COC(=O)CCCCCCC)COC(=O)CCCCCCC)C1CCCCCC1 (centres unmarked) [Compound 198]	6.984	88.41%	0.069	96.11 nm
CCCCCCCCCCCOC(=O)CCOCCN(CCN(CCO)CCOCCC(=O)OCC(CCCCCCCC)CCCCCCCC)C1CCC1 [Compound 116]	6.826	87.45%	0.102	77.45 nm
CCCCCCCCC(CCCCCCCC)COC(=O)CCCCCN(CCCCCC)CCN(CCCCCC(=O)OCC(CCCCCCCC)CCCCCCCC)C1CCC(O)CC1 (centres unmarked) [Compound 53]	5.872	95.7%	0.062	63.7 nm
CCCCCCCCCCCOC(=O)CCCCCN(CCO)CCN(CCCCCC(=O)OCC(CCCCCCCC)CCCCCCCC)C1CCCCC1 [Compound 45]	6.402	90.9%	0.051	63.5 nm
CCCCCCCCC(CCCCCCCC)COC(=O)CCCCCN(CCO)CCN(CCCCCC(=O)OCCCCCC)C1CCCCC1 [Compound 101]	6.423	87.20%	0.078	98.67 nm
CCCCCCCCC(CCCCCCCC)CNC(=O)CCCCCN(CCO)CCN(CCCCCC(=O)NCC(CCCCCCCC)CCCCCCCC)C1CCCCC1 [Compound 13]	6.633	83.3%	0.105	60.71 nm
CCCCCCCCC(CCCCCC)COC(=O)CCCCCN(CCCCN(CCO)CCCCC(COC(=O)CCCCCCC)COC(=O)CCCCCCC)C1CC1 (centres unmarked) [Compound 190]	6.699	88.81%	0.13	78.4 nm
CCCCCCCCC(CCCCCC)CNC(=O)CCCCCCN(CCO)CCN(CCCCC(COC(=O)CCCCCCC)COC(=O)CCCCCCC)C1CCCCC1 (centres unmarked) [Compound 231]	6.712	92.25%	0.036	73.66 nm
CCCCCCCCC(CCCCCCCC)CNC(=O)CCCCCN(CCN(CCCCO)CCCCCC(=O)OCC(CCCCCCCC)CCCCCCCC)C1CCC1 [Compound 77]	6.485	92.71%	0.006	84.87 nm
CCCCCCCCCCCOC(=O)CCCCCN(CCN(CCO)CCCCCC(OCCCCCCCC)OCCCCCCCC)C1CCC1 [Compound 200]	6.593	92.81%	0.054	84.18 nm
CCCCCCCCC(CCCCCCCC)COC(=O)CCCCCN(CCO)CCN(CCCCCC(=O)OCC(CCCCCCCC)CCCCCCCC)C1CCC(C(F)(F)F)CC1 (centres unmarked) [Compound 29]	6.073	93.5%	0.09	59.02 nm
